Reference: patent US20110190389A1, “OXYLIPINS FROM LONG CHAIN POLYUNSATURATED FATTY ACIDS AND METHODS OF MAKING AND USING THE SAME” (priority 2007, published 2011)

How the values were obtained:
[1] = tested on: total cell migration into air pouch exudates; assay: Mouse dorsal air pouch model: total cell migration into exudates; assay type: in vivo, C57/B16 mice; details: 100 ng docosanoid intra-pouch; for total number of cells in the pouch: 100 ng TNFα, 4 hours
Excerpt: (§1) Pure 17R-hydroxy DHA (17R-HDHA) was purchased from Caymen Chemicals (Ann Arbor, Mich.). Docosanoids 17-hydroxy-DPAn-6 (17-HDPAn-6) and 10,17-dihydroxyDPAn-6 (10,17-HDPAn-6) were synthesized biogenically from DPAn-6 (NuChek Prep, Elysian, Minn.) using soybean 15-lipoxygenase (Sigma-Aldrich) and purified by HPLC as described in Example 2. Organic solvents were evaporated and the compounds were re-dissolved in phosphate buffered saline (PBS), filter sterilized and concentrations were adjusted to 1000 ng/ml using molar extinction coefficients of 28,000 and 40,000 M^−1 cm^−1 for the mono- and dihydroxy docosanoids, respectively. Female C57/B16 mice (n=10 mice per group) were injected with sterile air subcutaneously in the back to initiate dorsal air pouches. Six days later, 0.9 ml sterile PBS followed by 100 ng docosanoid in 0.1 ml PBS or PBS alone were administered by intra-pouch injection. This injection was followed within 5 min by intra-pouch injection of 100 ng of mouse recombinant TNFα (Peprotech, Inc, NJ, USA) in 0.1 ml PBS. Control animals received no TNFα. As a positive control, 2 mg/kg indomethacin (Calbiochem, San Diego, Calif.) was administered intraperitoneally 30 min prior to administration of TNFα. Four hours after TNFα administration, air pouch exudates were removed and cells were stained with Turk's solution and counted. Exudates were frozen for later cytokine analyses using commercial ELISA kits. Bars represent group (n=10) means (±stdev). Groups were compared using Student's t test, with p values indicated.

IL-1β = assay: Mouse dorsal air pouch model: IL-1β in exudates; assay type: in vivo, C57/B16 mice; details: 100 ng docosanoid intra-pouch; for secretion of IL-1β in air pouch exudates: 100 ng TNFα, 4 hours
Excerpt: as §1

[2] = tested on: macrophage chemotactic protein-1 (MCP-1); assay: Mouse dorsal air pouch model: MCP-1 in exudates; assay type: in vivo, C57/B16 mice; details: 100 ng docosanoid intra-pouch; for secretion of MCP-1 in air pouch exudates: 100 ng TNFα, 4 hours; for inhibition of MCP-1 secretion versus indomethacin: indomethacin 2 mg/kg i.p.
Excerpt: as §1

human T lymphocytes = assay: TNFα secretion by human T lymphocytes stimulated with anti-CD3/anti-CD28 antibodies; assay type: cell-based; details: 6 hrs pretreatment, 41 hrs on anti-CD3/anti-CD28; difference p=0.037 at 10 nM
Protocol: FIG. 22A: Effect of Docosanoids on TNFα Secretion by Human T Lymphocytes. The assay was performed essentially as described in Ariel et al, 2005. Briefly, human peripheral blood mononuclear cells were isolated from venous blood by Ficoll-Paque™ Plus (Amersham biosciences) gradient. T lymphocytes were isolated using a human T cell enrichment column (R&D Systems) per manufacturer's instructions. Purified T cells were treated with 10,17-dihydroxy DPAn-6 or 10,17-dihydroxy DHA or vehicle (0.05% ethanol) in RPMI-1640 media containing 10% heat inactivated fetal bovine serum for 6 hrs at 37° C. Lymphocytes (200,000 cells in 200 μl media per well) were then transferred to 96-well plates coated with both anti-CD3 antibody and anti-CD28 antibody (100 μl of 2 μg/ml of each antibody overnight to coat wells) and incubated for 41 hrs. TNFα concentrations were determined in cell supernatants by ELISA (R&D Systems). Group means±stdev (n=4) were compared by Student's t test. *p<0.05 and **p<0.01 compared to control; # indicates statistical difference (p=0.037) between the groups treated with 10,17-dihydroxy DPAn-6 and 10,17-dihydroxy DHA at the 10 nM concentrations.

hind paw edema = assay: Carrageenan-induced rat paw edema after feeding LCPUFA diets; assay type: in vivo, Sprague Dawley rats; details: diet 4 weeks, 1% carrageenan, 3 hours post-injection, Day 28
Protocol: Adult, male, Sprague Dawley rats (n=10/treatment group) were fed modified AlN-76 diets formulated to include 1.2% DHA, 1.2% DHA+0.44% DPAn-6, or 1.2% DHA+0.46% arachidonic acid (ARA) for 4 weeks. Carrageenan (1%) was used to induce hind paw edema on Day 14 (left paw) and Day 28 (right paw) of feeding. Edema was measured plethysmographically using water displacement 3 hours post-injection. Similar results were obtained on day 14. *p≦0.05.

[3] = tested on: inflammatory cytokine production; assay: Consumption of LCPUFA oils: inflammatory cytokine and eicosanoid production; assay type: in vivo; details: consumption of the oil; DHA dose approximately three times higher in DHA-alone oil
Soybean 15-lipoxygenase = target: T1, Soybean 15-lipoxygenase (Glycine max, UniProt P08170); assay: 15-lipoxygenase reaction with fatty acid substrates (conversion to conjugated diene); assay type: biochemical; details: 100 μM fatty acid, 4 μg/ml enzyme, 0.05 M sodium borate pH 9.0, 0° C, absorbance 238 nm
T1 construct: purchased Sigma-Aldrich
T1 sequence (P08170 1-839): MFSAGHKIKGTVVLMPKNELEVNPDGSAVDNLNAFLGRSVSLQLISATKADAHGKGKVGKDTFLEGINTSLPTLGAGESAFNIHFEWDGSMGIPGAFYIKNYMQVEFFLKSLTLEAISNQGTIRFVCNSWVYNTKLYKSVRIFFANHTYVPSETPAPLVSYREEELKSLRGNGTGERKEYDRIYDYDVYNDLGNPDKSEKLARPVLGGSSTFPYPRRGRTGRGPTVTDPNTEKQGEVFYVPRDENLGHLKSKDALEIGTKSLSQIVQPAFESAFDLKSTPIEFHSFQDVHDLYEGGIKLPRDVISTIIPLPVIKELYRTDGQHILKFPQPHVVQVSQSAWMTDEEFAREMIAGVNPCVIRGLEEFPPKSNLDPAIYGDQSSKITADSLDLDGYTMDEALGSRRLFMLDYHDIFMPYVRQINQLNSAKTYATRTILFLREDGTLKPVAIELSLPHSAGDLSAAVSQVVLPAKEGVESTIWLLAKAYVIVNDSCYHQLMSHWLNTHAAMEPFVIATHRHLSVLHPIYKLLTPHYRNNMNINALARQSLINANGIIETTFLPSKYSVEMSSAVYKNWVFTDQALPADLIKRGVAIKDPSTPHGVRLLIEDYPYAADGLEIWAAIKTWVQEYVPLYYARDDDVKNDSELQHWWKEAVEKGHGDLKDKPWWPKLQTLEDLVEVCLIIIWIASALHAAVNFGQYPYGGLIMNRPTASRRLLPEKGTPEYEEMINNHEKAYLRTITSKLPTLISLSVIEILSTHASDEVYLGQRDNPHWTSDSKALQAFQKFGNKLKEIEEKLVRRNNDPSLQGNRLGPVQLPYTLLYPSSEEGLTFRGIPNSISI
Protocol: Soybean 15-lipoxygenase (Sigma-Aldrich, St. Louis, Mo.) at a final concentration of 4 μg/ml was mixed into 100 μM solutions of DHA, DPAn-6, or DPAn-3 (NuChek Prep, Elysian, Minn.) in 0.05 M sodium borate buffer, pH 9.0, and the reaction mixtures were incubated at 0° C. Appearance of the mono-hydroxy conjugated diene derivatives of the fatty acids was monitored through absorbance at 238 nm. Conjugated diene products were quantified using an extinction coefficient of 28,000 M^−1 cm^−1 (Shimizu et al; Methods in Enzymology, 1990 Vol 187, 296-306). As shown in Example. 1, 100% of the DPAn-6 was efficiently converted to its conjugated diene derivative under these conditions, whereas about 85% of DPAn-3 and 50% of DHA were converted to their respective conjugated diene (mono-hydroxy) derivative by the 15-lipoxygenase. No appreciable accumulation of the dihydroxy derivatives occurred under these reaction conditions.

| Molecule | total number of cells in the pouch [1] | secretion of IL-1β in air pouch exudates (IL-1β) | secretion of MCP-1 in air pouch exudates [2] | inhibition of MCP-1 secretion versus indomethacin [2] | other results |
| --- | --- | --- | --- | --- | --- |
| 10,17-dihydroxy DPAn-6 | significant reductions | significant reductions | significant reductions | larger inhibition of MCP-1 secretion than indomethacin | reduction of IL-1β versus comparators (IL-1β; indomethacin 2 mg/kg i.p.): significantly larger than with that produced by either the DHA oxylipin derivative or indomethacin; reducing TNFα secretion by T lymphocytes, versus DHA analog (human T lymphocytes): more potent than the DHA analog |
| CCCCCC(O)/C=C/C=C\C/C=C\C/C=C\C/C=C\CCC(=O)O (centres unmarked) [17-hydroxy DPAn-6] | significant reductions | significant reductions | significant reductions | larger inhibition of MCP-1 secretion than indomethacin | potency in reducing cell infiltration versus comparators ([1]; indomethacin 2 mg/kg i.p.): more potent than both 17R-hydroxy DHA and indomethacin |
| CCCCC/C=C\C/C=C\C/C=C\C/C=C\CCCC(=O)O [ARA, arachidonic acid] |  |  |  |  | edema volume (hind paw edema): reversed the anti-inflammatory activity of DHA |
| CC/C=C\C/C=C\C/C=C\C/C=C\C/C=C\C/C=C\CCC(=O)O [DHA, docosahexaenoic acid, reference compound] |  |  |  |  | reduction in inflammatory cytokine production [3]: 13-29% |
| CC/C=C\C/C=C\C/C=C\C/C=C\C/C=C\CCCCCC(=O)O [DPAn-3, docosapentaenoic acid (C22:5n-3)] |  |  |  |  | converted to conjugated diene (mono-hydroxy) derivative by the 15-lipoxygenase (Soybean 15-lipoxygenase): about 85% |
